# Experimental data from patent US11999794B2, “Human mesothelin chimeric antigen receptors and uses thereof” (Novartis AG, priority 2013, dated 2024).
# System: mesoCAR TILs against EMMESO tumor cells
# Test: Ex vivo killing and cytokine release assays with blocking agents
# Format: cell-based, human
# Details: blocking agent added ex vivo
# Protocol: T cell Effector Assays. Effector T cells were cocultured with firefly luciferase expressing tumor cells at different ratios for a specified period time. At the end of the co-culture incubation period, supernatant was saved for IFN levels by ELISA (Biolegend #430106), wells were washed, and remaining tumor cells were lysed with 1× cell lysis buffer for 30 minutes. The luciferase activity in the lysates was analyzed using the Luciferase Assay System on a GloMax Multi Detection System (Promega.) Results are reported as percent killing based on luciferase activity in wells with tumor, but no T cells. (% killing=100-((RLU from well with effector and target cell coculture)/(RLU from well with target cells)×100)). Effector-to-target ratios represent total T cells per target cell.
# Given these expression data, the potential functional importance of specific inhibitory pathways in mesoCAR TILs was studied by introducing available blocking agents during the ex vivo killing and cytokine release assays. […] The relatively high dose of 10 ug/ml anti-PDL1 antibody was based on previously published investigations on cancer immunotherapy.
smiles,measurement,value
"O.O.O.O.O.O.O.O.O.O=C([O-])[C@@H]1[O][Sb]2([O-])([O][Sb]34([OH])[O][C@H]([C@H](O)CO)[C@H]([O]3)[C@H](C(=O)[O-])[O]4)[O][C@H]([C@H](O)CO)[C@@H]1[O]2.[Na+].[Na+].[Na+] [SSG, sodium stibogluconate]",killing ability of cryo mesoCAR T cells,slightly inhibited
same,killing activity of mesoCAR TILs,significantly increased
same,tumor-induced IFN secretion of mesoCAR TILs,significantly increasing
